According to patent US10676780B2, “Stabilisation and isolation of extracellular nucleic acids” (QIAGEN GmbH, priority 2011, dated 2020):
Where a SMILES comes first, the peptide text is derived from it. The star is where a group is joined. Cbz = O=C(OCc1ccccc1)*; CH2Cl = ClC*; CH2F = FC*

Tests used:
anthrax lethal factor = anthrax lethal factor (Bacillus anthracis, UniProt P15917); settings: cited from earlier work
MCF7 breast cancer cells = settings: at 20 μM; cited from earlier work
mitochondrial division = settings: cited from earlier work
[1] = neuron culture medium at 37° C.; cited from earlier work
[2] = test system: etoposide-induced cortical neuron death; settings: cited from earlier work; for EC50: read-out: ED50 (the source's name)
[3] = administered in rats in vivo; cited from earlier work
whole blood samples [4] = assay: DNA size distribution by chip gel electrophoresis of DNA isolated from plasma of stored whole blood; type: cell-based; settings: for genomic DNA release/fragmentation: day 7, RT; for ladder-like pattern of DNA bands (release/fragmentation of genomic DNA): 20 μM end concentration in 10 ml blood, stored at RT, day 3 and day 7, vs DMSO control and K2E blood
Description: A test system was designed, wherein cell-containing biological samples, here whole blood samples, were incubated at room temperature (RT) for up to 6 or 7 days. Therein, the sample stabilizing properties of the additives of the present invention were tested on day 0, day 3 and day 6/7 the samples. The samples were processed according to the following protocols, where applicable (for details, see also the specific examples in the results section):
To separate the blood plasma from the whole blood, the blood samples were centrifuged for 15 min at 5000 rpm, and the obtained plasma samples were again centrifuged for 10 min at 16.000×g at 4° C.
(§1) The circulating, extracellular nucleic acids were purified from the obtained plasma samples using the QIAamp® Circulating NA Kit (according to the handbook). In brief: • 10 ml sample input; • lysis: 1 ml Proteinase K and 8 ml Buffer ACL (QIAGEN) • binding: 18 ml Buffer ACB (QIAGEN) • wash-steps: unchanged and according to handbook • elution in 60 μl Buffer AVE (QIAGEN) 4. Analysis of the Eluates
4.1. Measurement of the blood cell stability/DNA release by the determination of DNA size distribution using a chip gel electrophoresis (2100 Bioanalyzer; Agilent Technologies; Inc., USA) according to manufacturer's instruction (see handbook Agilent DNA 7500 and DNA 12000 Kit Guide), but 1.5 μl instead of 1 μl sample were transferred to the wells.
The eluted circulating cell-free DNA was separated by size using chip gel electrophoresis (for details on the method see above, I, 4.1). […] The DMSO control and the K2E blood (not treated according to the teachings of the present invention) show the same ladder-like pattern of bands. This pattern occurs in samples where apoptosis takes place. During apoptosis, endonucleases degrade genomic DNA at inter-nucleosomal linker regions and produce DNA fragments of circa 180 bp or multiples of 180 bp. Thus, apoptosis occurs in samples which show a clear ladder-like pattern. Furthermore, the strength (darkness) of the pattern is decisive. The darker the bands, the more genomic DNA was released from the cells and thus contaminates the extracellular nucleic acid population.

whole blood samples [5] = assay: ribosomal 18S DNA duplex real time PCR: increase of DNA in plasma of stored whole blood; type: cell-based, human; settings: for increase of genomic DNA in the plasma (18S DNA duplex assay) / x-fold increase of ribosomal 18S DNA in plasma: within 7 days of storage at RT; for x-fold increase of ribosomal 18S DNA in plasma: 20 μM in 10 ml blood
Description: A test system was designed, wherein cell-containing biological samples, here whole blood samples, were incubated at room temperature (RT) for up to 6 or 7 days. Therein, the sample stabilizing properties of the additives of the present invention were tested on day 0, day 3 and day 6/7 the samples.
as §1
4.2. DNA quantification with a real time PCR assay, sensitive for DNA degradation (target: 500 and 66 bp long ribosomal 18S DNA coding sequences).
(samples were diluted 1:10 before amplification)
Detection of ribosomal 18S DNA by quantitative real-time PCR, makes it possible to calculate the x-fold increase of DNA from day 0 to day 3 or 7 (calculation: division of day 3 (or 7) copies by day 0 copies).
The division of short amplicon copy number by long amplicon copy number (66 by/500 bp) indicates whether the amount of detected short or long amplicons changes over time in a similar way. A decrease of this ratio implies a stronger release of longer rather than of shorter DNA molecules and can be interpreted as release of high molecular weight genomic DNA from blood cells.
On day 0, day 3 and day 6, replicates were processed as follows. […] The collected plasma was centrifuged at 16,000×g for 10 minutes at 4° C. The cleared plasma fraction was collected and the extracellular nucleic acids were isolated using the QIAamp Circulating nucleic acid kit (1 ml input material, 60 μl elution volume). […] Values that are close to 1 imply preserved levels of ccfDNA. The higher the value, the less stabilization is achieved.

caspase-8 = caspase-8 (Homo sapiens, UniProt Q14790); settings: cited from earlier work
Sequence of caspase-8 (Q14790 217-479, species assumed): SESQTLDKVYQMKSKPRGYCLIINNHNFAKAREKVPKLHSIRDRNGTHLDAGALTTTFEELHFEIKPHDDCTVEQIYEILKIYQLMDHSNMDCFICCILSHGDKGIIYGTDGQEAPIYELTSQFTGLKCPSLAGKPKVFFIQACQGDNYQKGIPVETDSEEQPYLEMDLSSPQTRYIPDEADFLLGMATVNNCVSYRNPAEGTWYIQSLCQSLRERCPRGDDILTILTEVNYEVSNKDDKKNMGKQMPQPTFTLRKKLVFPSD

[6] = target: T1, human recombinant caspase-1 (Homo sapiens, UniProt P29466); settings: cited from earlier work
T1 sequence (P29466 120-404): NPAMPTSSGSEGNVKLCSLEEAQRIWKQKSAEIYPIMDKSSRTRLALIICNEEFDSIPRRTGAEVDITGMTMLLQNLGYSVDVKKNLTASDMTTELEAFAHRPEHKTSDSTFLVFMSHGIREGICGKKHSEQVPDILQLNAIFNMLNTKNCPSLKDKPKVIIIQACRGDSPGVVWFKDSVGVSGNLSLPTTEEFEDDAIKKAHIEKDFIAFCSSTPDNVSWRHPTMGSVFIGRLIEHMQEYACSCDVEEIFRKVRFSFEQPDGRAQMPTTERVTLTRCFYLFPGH

fragmentin 2 = target: T2, fragmentin 2 (Rattus norvegicus, UniProt P18291); settings: read-out: ID50 (the source's name); cited from earlier work
T2 sequence (P18291 21-248): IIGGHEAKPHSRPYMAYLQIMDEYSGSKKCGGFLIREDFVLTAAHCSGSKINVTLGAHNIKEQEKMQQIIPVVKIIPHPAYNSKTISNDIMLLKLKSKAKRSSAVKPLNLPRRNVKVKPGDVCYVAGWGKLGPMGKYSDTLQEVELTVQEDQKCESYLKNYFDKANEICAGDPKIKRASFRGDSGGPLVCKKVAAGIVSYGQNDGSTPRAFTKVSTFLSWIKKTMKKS

Bax-mediated apoptosis = settings: cited from earlier work
[7] = target: Bax (Bcl-2-associated X protein) (Homo sapiens, UniProt Q07812); settings: cited from earlier work
Sequence of Bax (Bcl-2-associated X protein) (Q07812 whole entry): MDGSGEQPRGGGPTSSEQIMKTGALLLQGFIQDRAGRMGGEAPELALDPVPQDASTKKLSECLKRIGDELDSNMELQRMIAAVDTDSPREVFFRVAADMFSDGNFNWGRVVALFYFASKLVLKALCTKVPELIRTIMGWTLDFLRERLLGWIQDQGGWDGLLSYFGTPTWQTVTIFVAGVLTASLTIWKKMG

Sequence of anthrax lethal factor (P15917 34-809 limits assumed): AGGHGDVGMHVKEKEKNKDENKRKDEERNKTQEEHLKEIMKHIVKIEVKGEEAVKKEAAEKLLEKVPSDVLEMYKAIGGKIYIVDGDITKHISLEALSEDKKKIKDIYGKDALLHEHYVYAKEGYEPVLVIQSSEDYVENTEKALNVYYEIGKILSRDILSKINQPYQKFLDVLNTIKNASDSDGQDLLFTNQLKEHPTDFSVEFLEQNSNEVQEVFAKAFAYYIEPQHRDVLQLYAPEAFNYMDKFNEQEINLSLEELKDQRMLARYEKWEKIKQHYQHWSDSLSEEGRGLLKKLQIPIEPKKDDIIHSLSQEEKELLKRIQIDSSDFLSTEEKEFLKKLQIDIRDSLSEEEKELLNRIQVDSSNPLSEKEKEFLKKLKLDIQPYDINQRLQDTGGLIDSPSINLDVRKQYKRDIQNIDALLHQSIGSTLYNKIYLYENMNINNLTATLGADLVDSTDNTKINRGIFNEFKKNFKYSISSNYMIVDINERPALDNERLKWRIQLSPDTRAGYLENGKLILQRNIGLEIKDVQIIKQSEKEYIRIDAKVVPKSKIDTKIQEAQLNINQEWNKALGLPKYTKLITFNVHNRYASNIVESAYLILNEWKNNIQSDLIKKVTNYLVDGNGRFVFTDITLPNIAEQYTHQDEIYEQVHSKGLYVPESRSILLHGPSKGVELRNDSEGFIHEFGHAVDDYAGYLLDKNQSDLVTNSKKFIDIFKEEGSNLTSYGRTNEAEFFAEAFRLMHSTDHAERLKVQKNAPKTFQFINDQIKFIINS

In the case of `FC(F)(F)c1cccc(-c2csc(C3COc4ccccc4O3)n2)c1` (stereo not drawn) [Caspase Inhibitor X], the effect on activity (anthrax lethal factor) is given as “assisted cleavage of BID, a proapoptotic protein. Weakly affects”.
In the case of `O=C(C=Cc1ccc(C=CC(=O)Nc2ccc(C3=NCCN3)cc2)cc1)Nc1ccc(C2=NCCN2)cc1` [GW 4869], the “protection against cell death” value (MCF7 breast cancer cells) is given as “specific PLC. Reported to offer complete protection against TNF-α”.
For `COc1cc(-n2c(=S)[nH]c3ccccc3c2=O)c(Cl)cc1Cl` [Mdivi-1, 3-(2,4-Dichloro-5-methoxyphenyl)-2,3-dihydro-2-thioxo-4(1H)-quinazolinone], the IC50 (mitochondrial division) is listed as roughly 10 µM.
For `O=[N+]([O-])c1ccc(-c2cn3c4c(sc3n2)CCCC4)cc1` [Pifithrin-α, p-Nitro, Cyclic], the “half-life longer than Pifithrin-α” value [1] is given as 50%, the “potency relative to Pifithrin-α” value [2] is given as “A cell-permeable p53 inhibitor that exhibits 10-fold higher potency” and the EC50 [2] is given as 0.03 µM.
For `N=c1sc2c(n1CC(=O)c1ccc([N+](=O)[O-])cc1)CCCC2` [Pifithrin-α, p-Nitro], the “potency relative to Pifithrin-α” value [3] is given as 100-fold more potent than Pifithrin-α when adminstered in rats in and the EC50 [2] is given as 0.3 µM.
For `CC(C)C(NC(=O)c1ccc2ccccc2n1)C(=O)NC(CC(=O)O)C(=O)COc1c(F)cccc1F` (stereo not drawn) [Q-VD-OPh, Quinoline-Val-Asp-CH2-OPH], the “genomic DNA release/fragmentation” value (whole blood samples [4]; 1 μM caspase inhibitor with 21.4 mM glucose) was “significantly reduced the genomic DNA release/fragmentation”, the “genomic DNA release/fragmentation” value (whole blood samples [4]; 4 μM caspase inhibitor with 21.4 mM glucose, compared with 1 μM) was “improved” and the “ladder-like pattern of DNA bands (release/fragmentation of genomic DNA)” value (whole blood samples [4]) was “significantly reduced ladder-like patterns”. For the same compound, the “increase of genomic DNA in the plasma (18S DNA duplex assay)” value (whole blood samples [5]; 1 μM in combination with 21 mM glucose) was “only a minor increase of genomic DNA”, the “increase of genomic DNA in the plasma (18S DNA duplex assay)” value (whole blood samples [5]; 4 μM in combination with 21 mM glucose) was no more than 4 fold and the “x-fold increase of ribosomal 18S DNA in plasma” value (whole blood samples [5]) was “reduced increase of DNA”.
For `COC(=O)C[C@H](NC(=O)[C@H](C)NC(=O)[C@@H](NC(=O)OCc1ccccc1)C(C)C)C(=O)CF` [Z-Val-Ala-Asp(OMe)-FMK] (Cbz-Val-Ala-Asp(OMe)-CH2F), the “ladder-like pattern of DNA bands (release/fragmentation of genomic DNA)” value (whole blood samples [4]) was “reduced ladder-like pattern” and the “x-fold increase of ribosomal 18S DNA in plasma” value (whole blood samples [5]) was “more prominent on day 7”.
For `O[C@H]1[C@H](O)[C@@H](O)[C@H](O)[C@@H](O)[C@H]1O` [inositol, Cyclohexane-1,2,3,4,5,6-geksol], the “relative change of ccfDNA level (day X copies/day 0 copies)” value (whole blood samples [5]; concentrations of for example 0.05 M, room temperature up to six days) was “suitable alternatives”.
For `OC[C@@H](O)[C@@H](O[C@H]1O[C@H](CO)[C@@H](O)[C@H](O)[C@H]1O)[C@H](O)[C@@H](O)CO` [maltitol, 4-O-α-D-Glucopyranosyl-D-glucitol], the “relative change of ccfDNA level (day X copies/day 0 copies)” value (whole blood samples [5]; concentrations ≤0.01M, room temperature up to six days) was “suitable alternatives”.
With `OCC(O)C(O)C(O)C(O)CO` (stereo not drawn) [mannitol, Hexane-1,2,3,4,5,6-hexol] the “relative change of ccfDNA level (day X copies/day 0 copies)” value (whole blood samples [5]; 0.1, 0.05, 0.01 M tested, room temperature) was “stabilization effects over 3 days”.
In the case of Ac-IETD-aldehyde, the Ki (caspase-8) is given as 0.001 µM.
For “Ac-Tyr-Val-Ala-Asp-CHO [Caspase-1 Inhibitor I]”, the Ki [6] is listed as 0.0002 µM.
In the case of “Cbz-Ala-Ala-Asp-CH2Cl [Granzyme B Inhibitor I]”, the IC50 (fragmentin 2) is listed as 0.3 µM.
In the case of “H-Val-Pro-Met-Leu-Lys-OH (H-VPMLK-OH) [Bax-Inhibiting Peptide, V5]”, the “effective concentration for Bax-mediated apoptosis” value (Bax-mediated apoptosis) is given as “mediated apoptosis (~50-200 μM). Also effectively blocks caspase-”.
In the case of “Humanin, Human, Synthetic: A 24-residue anti-apoptotic peptide”, the Kd [7] is given as roughly 0.002 µM.
